Assays:
[1] = test system: LPS-induced GTPase activity in membranes isolated from RAW 264.7 cells; assay: GTPase assay: effect of compounds on LPS-stimulated GTPase activity in macrophage membranes (release of 32Pi from γ-32P-GTP); format: biochemical
Source text: We sought to directly evaluate the influence of LPS on possible G-protein function by examining agonist-enhanced GTPase activity, which is a hallmark of G-protein action. Moreover, because macrophages are one of the key cell types in the release of toxic mediators following an LPS challenge, we first assessed the capacity of LPS to influence GTPase activity in membranes isolated from RAW 264.7 cells, which is a highly LPS-responsive macrophage cell line. In these studies, GTPase activity was measured using a standard assay. The activity was determined using 2 µM γ-^32P-GTP in the presence of 0.1 mM ATP and 0.2 mM of the non-hydrolyzable ATP analog, AMPPNP, in order to minimize nonspecific nucleotidase activity in the membrane preparations.
The reaction is initiated by the addition of the γ-^32P-GTP and the mixture incubated at 30-37°C for 15 to 30 minutes. The reaction is terminated by the addition of 500µl of 5% trichloroacetic acid and 500µl of 0.1gm/ml acid-activated charcoal in 5% trichloroacetic acid. The samples are centrifuged at 14,000xg for 10 minutes, and a 550µl aliquot of the supernatant is removed for scintillation counting. The supernatant will contain the released ^32Pi. The extent of GTPase inhibition is measured by the decrease in the amount of ^32Pi released from γ-^32P-GTP. Appropriate controls include mixtures with one of the following omitted: (i) test compound, (ii) endotoxin, and (iii) ATP, ADP or AMPPNP.
The membranes are resuspended in 20 mM HEPES (pH 7.4), 1 mM dithiothreitol, 1 mM EDTA and 10 µg leupeptin/ml. Aliquots are stored at -70°C until assayed.

[2] = test system: TNFα production by RAW264.7 macrophages; assay: LPS-mediated TNF production by macrophages, measured by cell viability assay on actinomycin D-sensitized L929 cells; format: cell-based; conditions: RAW264.7 cells treated with 2-MeSATP (0-5µM), LPS and ATP
Experimental: Moreover, 2-MeSATP decreased LPS-mediated TNFα production by RAW264.7 macrophages. Production of TNF by the macrophage cells was measured by a "cell viability" assay. This is a standard assay described in Birkland, et al., Adv. Exp. Med. Biol. 256: 399-402 (1990). In brief, TNF in solution will kill actinomycin D-sensitized L929 cells, which can be measured by a loss of MTT dye reduction. The supernatent was removed from RAW264.7 cells treated with 2-MeSATP, LPS and ATP. The greater the amount of 2-MeSATP added (0-5µM), the less TNF was produced by the macrophage cells.

2-methylthio-ATP [2-MeSATP]
inhibition of LPS-stimulated GTPase activity [1]: blocks | stimulation (potentiation) of LPS-stimulated GTPase activity [1]: no stimulatory effect | antagonism of the stimulatory effects of ATP on LPS-inducible GTPase activity ([1]; 2-MeSATP 0-100µM): did antagonize | relative abilities of purines to stimulate LPS-enhanced GTPase ([1]; dose-response studies, rank order): ATP> ATPγS> ADP> AMPPNP>> β,γ methylene ATP> 2-MeSATP | LPS-mediated TNFα production [2]: decreased | LPS-mediated TNFα production ([2]; listed as 2-methylthio-ATP): blocks

From patent EP0559845B1, “Use of compounds in preventing endotoxin shock” (priority 1991, dated 1992)
